Results as given in patent US9174966B2, “Crystalline forms of 6-(1H-imidazol-1-yl)-2-phenylquinazoline” (ROTTAPHARM S.P.A., priority 2009, dated 2015).
In brackets after ≈: the same amount, converted by molar mass. Entries after “also recorded” stand apart in the source; their conditions may differ. Read-outs that look alike come from different tables or passages of the source.

Key:
[1] = Hygroscopicity noted for the isolated crystalline product; type: physicochemical; conditions: as noted in the preparation example
[2] = Stability to mechanical stress (milling, XRPD); type: physicochemical; conditions: Retsch MM 200 mill, 50 Hz, 5 min.
Procedure: 6-(1H-Imidazol-1-yl)-2-phenylquinazoline, polymorph A, was subjected to milling by means of a Retsch MM 200 mill, at 50 Hz for 5 min., and the product thus obtained was analysed by XRPD.
6-(1H-Imidazol-1-yl)-2-phenylquinazoline succinate form A, was subjected to milling by means of a Retsch MM 200 mill, at 50 Hz for 5 min., and the product thus obtained was subjected to XRPD analysis.
6-(1H-Imidazol-1-yl)-2-phenylquinazoline L-tartrate dihydrate, form A, was subjected to milling by means of a Retsch MM 200 mill, at 50 Hz for 5 min., and the product thus obtained was subjected to XRPD analysis.
6-(1H-Imidazol-1-yl)-2-phenylquinazoline maleate, form A, was subjected to milling by means of a Retsch MM 200 mill, at 50 Hz for 5 min., and the product thus obtained was subjected to XRPD analysis.

[3] = Solubility in aqueous solution of NaCl 0.9% (UV absorbance at 260 nm); type: physicochemical; conditions: aqueous solution of NaCl 0.9%, 37 °C, saline or isotonic, thermodynamic from solid, aqueous NaCl 0.9%, stirred 500 rpm, 24 hours at 37° C.
Procedure: The solubility is 0.6 mg/mL. […]
The sample of 6-(1H-imidazol-1-yl)-2-phenylquinazoline phosphate, form A, is stirred in an aqueous solution of NaCl 0.9%, at 500 rpm, so as to obtain a suspension (50 mg in 2 mL), for 24 hours at 37° C.
(§1) The sample of 6-(1H-imidazol-1-yl)-2-phenylquinazoline phosphate, form A, is stirred in an aqueous solution of NaCl 0.9%, at 500 rpm, so as to obtain a suspension (70 mg in 2 mL), for 24 hours at 37° C. […] The dissolution rate is measured by adding 2 mg of product to 40 mL of water at 37° C., stirring at 500 rpm, and measuring the absorbance at 260 nm every 0.05 min; the dissolution rate is found to be 1.9×10^−4 gr/min.

[4] = Thermal stability of the crystalline form (XRPD); conditions: XRPD
[5] = Dissolution rate in water at 37° C.; type: physicochemical; conditions: 2 mg of product in 40 mL of water at 37° C., 500 rpm, absorbance at 260 nm
Procedure: as §1

[6] = Stability to moisture, DVS analysis (Differential Vapour Sorption); type: physicochemical; conditions: 25° C., hydration/dehydration cycle; maleate
Procedure: The sample placed on a microbalance is subjected, in a chamber of controlled humidity, at 25° C., to a cycle of hydration (increasing humidity, red line) and of dehydration (decreasing humidity, blue line).
The sample of 6-(1H-imidazol-1-yl)-2-phenylquinazoline succinate form A was subjected to DVS analysis (as described in Example 32).
The sample of 6-(1H-imidazol-1-yl)-2-phenylquinazoline L-tartrate dihydrate, form A, was subjected to DVS analysis.
The sample of 6-(1H-imidazol-1-yl)-2-phenylquinazoline maleate, form A, was subjected to DVS analysis.

[7] = Pharmacokinetics in rats, oral versus intravenous administration; type: in vivo; conditions: for half-life: read-out: T½; for Tmax: read-out: Tmax (converted)
Procedure: The samples are analysed by HPLC-MS to determine the content of 6-(1H-imidazol-1-yl)-2-phenylquinazoline, using diphenylhydramine hydrochloride as internal standard. The pharmacokinetic parameters measured are summarized hereinbelow: it is noted that, despite the fact that the polymorph under consideration is of low solubility, the bioavailability (F %) is entirely acceptable.
The pharmacokinetic parameters measured are summarized hereinbelow: it is noted that the salt under consideration has optimum bioavailability (F %). […]

[8] = BCS (Biopharmaceutical Classification System) classification; type: physicochemical; conditions: high permeability, low solubility
From the text: To take these two factors into account, a classification of drug products was introduced, known as BCS (Biopharmaceutical Classification System) (G L Amidon et al., Pharm. Res. 1995, 12: 413-419). Since it is endowed with good permeability and low solubility, 6-(1H-imidazol-1-yl)-2-phenylquinazoline falls into class II (high permeability, low solubility) of the BCS system. For the drug products of this class, the solubility is fundamental in determining their absorption. The preparation of pharmaceutically acceptable salts generally represents a means for increasing the solubility of sparingly soluble products, and, in the case of products endowed with good permeability, is a suitable means for increasing their bioavailability.

physchem = conditions: 37 °C, pH 2, aqueous buffer, thermodynamic from solid
Procedure: A sample of 6-(1H-imidazol-1-yl)-2-phenylquinazoline, polymorph A (150 mg), is stirred in a phosphate buffer solution at pH 7.4 (8 mL), at 500 rpm, so as to obtain a suspension, for 24 hours at 37° C. The suspension is then filtered and the concentration of the dissolved product is measured by reading the UV absorbance at 260 nm. […] A sample of 6-(1H-imidazol-1-yl)-2-phenylquinazoline, polymorph A (250 mg), is stirred in a phosphate buffer solution at pH 2 (2 mL), at 500 rpm, so as to obtain a suspension, for 24 hours at 37° C. The suspension is then filtered and the concentration of the dissolved product is measured by reading the UV absorbance at 260 nm.
A sample of 6-(1H-imidazol-1-yl)-2-phenylquinazoline, form B, (50 mg), is stirred in a phosphate buffer solution at pH 7.4 (2 mL), at 500 rpm, so as to obtain a suspension, for 24 hours at 37° C. The suspension is then filtered and the concentration of the dissolved product is measured by reading the UV absorbance at 260 nm.
A sample of 6-(1H-imidazol-1-yl)-2-phenylquinazoline, form C (30 mg), is stirred in a phosphate buffer solution at pH 7.4 (2 mL), at 500 rpm, so as to obtain a suspension, for 24 hours at 37° C. The suspension is then filtered and the concentration of the dissolved product is measured by reading the UV absorbance at 260 nm. […]

[9] = 90° C., 12 hours (or at least 12 hours)
[10] = rat, blood, iv, 5 mg/kg, IV, 5 mg/kg
[11] = rat, blood, po, 10 mg/kg, OS (oral), 10 mg/Kg

O=C(O)/C=C\C(=O)O.c1ccc(-c2ncc3cc(-n4ccnc4)ccc3n2)cc1 [maleate form A, 6-(1H-imidazol-1-yl)-2-phenylquinazoline maleate]
hygroscopicity of the isolated product [1]: non-hygroscopic | stability to milling [2]: has not undergone any changes of crystalline form, but a slight increase in the presence of amorphous product is revealed, which recrystallizes within a few hours on standing | solubility at 24 h [3]: 7900 µg/mL | thermal stability of crystalline form ([4]; 40° C., 70% RH, 7 days): stable | thermal stability of crystalline form [4, 9]: stable | dissolution rate [5]: 1.45×10^−3 gr/min | hygroscopicity (DVS) [6]: not hygroscopic in the range 0-85% RH; also recorded: not particularly hygroscopic even at values of greater than 85% RH | V ([7]; IV, 5 mg/kg): 1.3 L/kg | CL ([7]; OS (oral), 10 mg/Kg): 16 mL/min/kg | V ([7]; OS (oral), 10 mg/Kg): 1.90 L/kg | bioavailability ([7]; rat, blood, OS 10 mg/Kg compared with IV 5 mg/kg, read-out: F (bioavailability)): 100% | clearance ([7]; rat, blood, iv, 5 mg/kg): 22 mL/min/kg | half-life [7, 10]: 45.6 min | Tmax [7, 11]: 60 min | half-life [7, 11]: 45 min

c1ccc(-c2ncc3cc(-n4ccnc4)ccc3n2)cc1 [6-(1H-imidazol-1-yl)-2-phenylquinazoline]
BCS class [8]: class II

c1ccc(-c2ncc3cc(-n4ccnc4)ccc3n2)cc1 [polymorph A, 6-(1H-imidazol-1-yl)-2-phenylquinazoline]
stability to milling [2]: without any contamination with other crystalline forms, and no appreciable formation of amorphous material | thermal stability of crystalline form ([4]; 40° C., RH 85%, 5 days (at least 5 days for polymorph A)): stable | thermal stability of crystalline form [4, 9]: stable | V ([7]; IV, 5 mg/kg): 1.28 L/kg | F (bioavailability) ([7]; OS 10 mg/Kg compared with IV 5 mg/kg): 50.3% | CL ([7]; OS (oral), 10 mg/Kg): 22 mL/min/kg | V ([7]; OS (oral), 10 mg/Kg): 1.60 L/kg | clearance ([7]; rat, blood, iv, 5 mg/kg): 21 mL/min/kg | half-life [7, 10]: 42.1 min | Tmax [7, 11]: 100 min | half-life [7, 11]: 45.4 min | solubility at 24 h (physchem): 1800 µg/mL (≈ 6.61 mM)
